Experimental data published in ChEMBL document CHEMBL1201862, “PubChem BioAssay data set” (2004).
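Values below derive from 48-hour exposures of cells grown in 96-well plates, with endpoints linearly interpolated between the two concentrations bracketing the appropriate inhibition level. Abbreviation: GI50, concentration required for 50% inhibition of growth.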 The source made the active and inactive calls. Rule as the data show it: active = GI50 up to about 1.1 µM and inactive = higher.

Tests used:
Assay in all cases: DTP human tumour cell line panel, 48 h
786-0 = tested on: 786-0
A549 = tested on: A549
ACHN = tested on: ACHN
CAKI-1 = tested on: CAKI-1
CCRF-CEM = tested on: CCRF-CEM
COLO 205 = tested on: COLO 205
DLD-1 = tested on: DLD-1
DMS-114 = tested on: DMS-114
DMS-273 = tested on: DMS-273
EKVX = tested on: EKVX
HCC 2998 = tested on: HCC 2998
HCT-116 = tested on: HCT-116
HCT-15 = tested on: HCT-15
HL-60 = tested on: HL-60
HOP-62 = tested on: HOP-62
HT-29 = tested on: HT-29
IGROV-1 = tested on: IGROV-1
K562 = tested on: K562
KM-20L2 = tested on: KM-20L2
KM12 = tested on: KM12
LOX IMVI = tested on: LOX IMVI
LXFL 529 = tested on: LXFL 529
M14 = tested on: M14
M19-MEL = tested on: M19-MEL
MOLT-4 = tested on: MOLT-4
Malme-3M = tested on: Malme-3M
NCI-H226 = tested on: NCI-H226
NCI-H23 = tested on: NCI-H23
NCI-H460 = tested on: NCI-H460
NCI-H522 = tested on: NCI-H522
OVCAR-3 = tested on: OVCAR-3
OVCAR-4 = tested on: OVCAR-4
OVCAR-5 = tested on: OVCAR-5
OVCAR-8 = tested on: OVCAR-8
RPMI-8226 = tested on: RPMI-8226
RXF 393 = tested on: RXF 393
RXF 631 = tested on: RXF 631
SF-268 = tested on: SF-268
SF-295 = tested on: SF-295
SF-539 = tested on: SF-539
SK-MEL-28 = tested on: SK-MEL-28
SK-MEL-2 = tested on: SK-MEL-2
SK-OV-3 = tested on: SK-OV-3
SN12C = tested on: SN12C
SNB-19 = tested on: SNB-19
SNB-75 = tested on: SNB-75
SR = tested on: SR
SW-620 = tested on: SW-620
TK-10 = tested on: TK-10
U-251 = tested on: U-251
UACC-257 = tested on: UACC-257
UACC-62 = tested on: UACC-62
UO-31 = tested on: UO-31
XF498 = tested on: XF498

With `CC(=O)COC(=O)CC(C)=O` the GI50 (786-0) was > 100 µM (inactive), the GI50 (A549) was > 100 µM (inactive) and the GI50 (ACHN) was > 100 µM (inactive). For the same compound, the GI50 (CAKI-1) was > 100 µM (inactive), the GI50 (CCRF-CEM) was > 100 µM (inactive) and the GI50 (COLO 205) was > 100 µM (inactive). The GI50 (DLD-1) was > 100 µM (inactive), the GI50 (DMS-114) was > 100 µM (inactive) and the GI50 (DMS-273) was > 100 µM (inactive). For the same compound, the GI50 (EKVX) was > 100 µM (inactive), the GI50 (HCC 2998) was > 100 µM (inactive) and the GI50 (HCT-116) was > 100 µM (inactive). The GI50 (HCT-15) was > 100 µM, the GI50 (HL-60) was > 100 µM (inactive) and the GI50 (HOP-62) was > 100 µM (inactive). For the same compound, the GI50 (HT-29) was > 100 µM (inactive), the GI50 (IGROV-1) was > 100 µM (inactive) and the GI50 (K562) was > 100 µM (inactive). The GI50 (KM-20L2) was > 100 µM (inactive), the GI50 (KM12) was > 100 µM (inactive) and the GI50 (LOX IMVI) was > 100 µM (inactive). For the same compound, the GI50 (LXFL 529) was > 100 µM (inactive), the GI50 (M14) was > 100 µM (inactive) and the GI50 (M19-MEL) was > 100 µM (inactive). The GI50 (MOLT-4) was > 100 µM (inactive), the GI50 (Malme-3M) was > 100 µM (inactive) and the GI50 (NCI-H226) was > 100 µM (inactive). The GI50 (NCI-H23) was > 100 µM (inactive), the GI50 (NCI-H460) was > 100 µM (inactive) and the GI50 (NCI-H522) was > 100 µM (inactive). The GI50 (OVCAR-3) was > 100 µM (inactive), the GI50 (OVCAR-4) was > 100 µM (inactive) and the GI50 (OVCAR-5) was > 100 µM (inactive). For the same compound, the GI50 (OVCAR-8) was > 100 µM (inactive), the GI50 (RPMI-8226) was > 100 µM (inactive) and the GI50 (RXF 393) was > 100 µM (inactive). The GI50 (RXF 631) was > 100 µM (inactive), the GI50 (SF-268) was > 100 µM (inactive) and the GI50 (SF-295) was > 100 µM (inactive). For the same compound, the GI50 (SF-539) was > 100 µM (inactive), the GI50 (SK-MEL-28) was > 100 µM (inactive) and the GI50 (SK-MEL-2) was > 100 µM (inactive). For the same compound, the GI50 (SK-OV-3) was > 100 µM (inactive), the GI50 (SN12C) was > 100 µM (inactive) and the GI50 (SNB-19) was > 100 µM (inactive). For the same compound, the GI50 (SNB-75) was > 100 µM (inactive), the GI50 (SR) was > 100 µM (inactive) and the GI50 (SW-620) was > 100 µM (inactive). The GI50 (TK-10) was > 100 µM (inactive), the GI50 (U-251) was > 100 µM (inactive) and the GI50 (UACC-257) was > 100 µM (inactive). The GI50 (UACC-62) was > 100 µM (inactive), the GI50 (UO-31) was > 100 µM (inactive) and the GI50 (XF498) was > 100 µM (inactive).
